Measurements: US20240398828A1, “HETERO-ATOM CONTAINING COMPOUNDS AND USES THEREOF” (Kumquat Biosciences Inc., priority 2021, published 2024)

Key:
PTPN2 (i.e., TC-PTP) = target: T1, PTPN2 (i.e., TC-PTP) (Homo sapiens, UniProt P17706); assay: Phosphatase activity assay (DiFMUP substrate), PTPN2; assay type: biochemical; conditions: compounds binned ≤1 uM or >1 uM
T1 sequence (P17706 1-415): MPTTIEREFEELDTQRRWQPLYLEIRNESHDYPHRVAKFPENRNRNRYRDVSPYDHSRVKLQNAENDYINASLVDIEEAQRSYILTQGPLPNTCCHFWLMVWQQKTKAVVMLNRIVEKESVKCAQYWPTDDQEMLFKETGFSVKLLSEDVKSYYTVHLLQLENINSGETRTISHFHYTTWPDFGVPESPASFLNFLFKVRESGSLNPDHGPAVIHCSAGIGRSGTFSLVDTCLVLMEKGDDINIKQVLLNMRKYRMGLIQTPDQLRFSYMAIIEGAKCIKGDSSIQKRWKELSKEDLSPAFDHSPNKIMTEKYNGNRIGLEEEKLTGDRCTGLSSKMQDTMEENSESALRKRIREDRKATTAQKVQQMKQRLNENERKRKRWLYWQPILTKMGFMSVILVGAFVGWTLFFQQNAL
Method in brief: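 RT, HEPES pH 7.5 buffer with DTT/Tween-20. 10-point inhibitor series premixed ~2 min with enzyme (PTPN2 0.025 ng/ul). Start with DiFMUP at enzyme Km (~45 μM for PTPN2). Read DiFMU ex360/em450 continuously 15–30 min; initial rate vs concentration, 4-parameter fit → IC50.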

PTPN1 (i.e., PTP1B) = target: T2, PTPN1 (i.e., PTP1B) (Homo sapiens, UniProt P18031); assay: Phosphatase activity assay (DiFMUP substrate), PTP1B; assay type: biochemical; conditions: compounds binned ≤1 uM or >1 uM
T2 sequence (P18031 1-435): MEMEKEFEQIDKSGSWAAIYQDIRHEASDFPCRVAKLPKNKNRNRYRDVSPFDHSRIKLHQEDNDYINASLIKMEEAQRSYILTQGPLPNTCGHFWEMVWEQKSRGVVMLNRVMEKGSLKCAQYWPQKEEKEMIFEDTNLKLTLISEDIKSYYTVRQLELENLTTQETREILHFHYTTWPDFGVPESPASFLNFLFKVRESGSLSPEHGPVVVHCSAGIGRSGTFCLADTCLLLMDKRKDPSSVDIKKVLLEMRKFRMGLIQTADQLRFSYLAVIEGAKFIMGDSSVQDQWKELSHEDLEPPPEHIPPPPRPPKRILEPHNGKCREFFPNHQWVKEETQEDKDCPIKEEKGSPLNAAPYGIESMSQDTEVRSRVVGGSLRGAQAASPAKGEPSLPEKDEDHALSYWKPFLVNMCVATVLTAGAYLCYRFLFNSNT
Method in brief: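 Continuous fluorogenic readout of DiFMUP dephosphorylation at room temperature, substrate set at Km for each phosphatase (about 45 μM in the PTPN2 assay). The buffer contains 1 mM DTT and 0.001% Tween-20, pH 7.5.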

Row | Compound | IC50 (PTPN2 (i.e., TC-PTP)) [nM] | IC50 (PTPN1 (i.e., PTP1B)) [nM]
1 | O=C1CN(c2c(O)ccc(-c3cc(C(=O)N4CCC4)n[nH]3)c2F)S(=O)(=O)N1 [Compound 230, 5-(3-(3-(azetidine-1-carbonyl)-1H-pyrazol-5-yl)-2-fluoro-6-hydroxyphenyl)-1,2,5-thiadiazolidin-3-one 1,1-dioxide] | ≤ 1000 | ≤ 1000
2 | CCC(CC)n1cnc(-c2ccc(O)c(N3CC(=O)NS3(=O)=O)c2F)c1 [Compound 350, 5-(2-fluoro-6-hydroxy-3-(1-(pentan-3-yl)-1H-imidazol-4-yl)phenyl)-1,2,5-thiadiazolidin-3-one 1,1-dioxide] | ≤ 1000 | ≤ 1000
3 | O=C1CN(c2c(O)ccc(-c3cnn(Cc4cccc(Cl)c4)c3)c2F)S(=O)(=O)N1 [Compound 223, 5-(3-(1-(3-chlorobenzyl)-1H-pyrazol-4-yl)-2-fluoro-6-hydroxyphenyl)-1,2,5-thiadiazolidin-3-one 1,1-dioxide] | ≤ 1000 | ≤ 1000
4 | CC(C)CCOC1CCCN(c2cc(O)c(N3CC(=O)NS3(=O)=O)c(F)c2)C1 (stereo not shown) [Compound 201, 5-(2-fluoro-6-hydroxy-4-(3-(isopentyloxy)piperidin-1-yl)phenyl)-1,2,5-thiadiazolidin-3-one 1,1-dioxide] | ≤ 1000 | ≤ 1000
5 | CC(C)CNC1(c2cc(-c3ccc(O)c(N4CC(=O)NS4(=O)=O)c3F)nn2C)CC1 [Compound 269, 5-(2-fluoro-6-hydroxy-3-(5-(1-(isobutylamino)cyclopropyl)-1-methyl-1H-pyrazol-3-yl)phenyl)-1,2,5-thiadiazolidin-3-one 1,1-dioxide] | ≤ 1000 | ≤ 1000
6 | Nc1nc2ccc(-c3ccc(O)c(N4CC(=O)NS4(=O)=O)c3F)cc2o1 [Compound 191, 5-(3-(2-aminobenzo[d]oxazol-6-yl)-2-fluoro-6-hydroxyphenyl)-1,2,5-thiadiazolidin-3-one 1,1-dioxide] | ≤ 1000 | ≤ 1000
7 | O=C1CN(c2c(O)ccc(-c3cc(N4CCC5(CCC5)C4)n[nH]3)c2F)S(=O)(=O)N1 [Compound 248, 5-(3-(3-(6-azaspiro[3.4]octan-6-yl)-1H-pyrazol-5-yl)-2-fluoro-6-hydroxyphenyl)-1,2,5-thiadiazolidin-3-one 1,1-dioxide] | ≤ 1000 | ≤ 1000
8 | O=C1CN(c2c(O)ccc(-c3cn(C4CCCCC4)nc3F)c2F)S(=O)(=O)N1 [Compound 469, 5-(3-(1-cyclohexyl-3-fluoro-1H-pyrazol-4-yl)-2-fluoro-6-hydroxyphenyl)-1,2,5-thiadiazolidin-3-one 1,1-dioxide] | ≤ 1000 | ≤ 1000
9 | O=C1CN(c2c(O)ccc(-c3cnn(C4CCC(C(F)(F)F)CC4)c3)c2F)S(=O)(=O)N1 (stereo not shown) [Compound 341, 5-(2-fluoro-6-hydroxy-3-(1-(4-(trifluoromethyl)cyclohexyl)-1H-pyrazol-4-yl)phenyl)-1,2,5-thiadiazolidin-3-one 1,1-dioxide] | ≤ 1000 | ≤ 1000
10 | O=C1CN(c2c(O)ccc(-c3cc[nH]c3)c2F)S(=O)(=O)N1 [Compound 129, 5-(2-fluoro-6-hydroxy-3-(1H-pyrrol-3-yl)phenyl)-1,2,5-thiadiazolidin-3-one 1,1-dioxide] | ≤ 1000 | ≤ 1000
11 | O=C1CN(c2c(O)ccc(-c3cn(-c4ccc(F)c(F)c4)cn3)c2F)S(=O)(=O)N1 [Compound 289, 5-(3-(1-(3,4-difluorophenyl)-1H-imidazol-4-yl)-2-fluoro-6-hydroxyphenyl)-1,2,5-thiadiazolidin-3-one 1,1-dioxide] | ≤ 1000 | ≤ 1000
12 | O=C1CN(c2c(O)ccc(-c3cn(C4CC4(F)F)[nH]c3=O)c2F)S(=O)(=O)N1 (stereo not shown) [Compound 500, 5-(3-(1-(2,2-difluorocyclopropyl)-3-oxo-2,3-dihydro-1H-pyrazol-4-yl)-2-fluoro-6-hydroxyphenyl)-1,2,5-thiadiazolidin-3-one 1,1-dioxide] | ≤ 1000 | ≤ 1000
13 | CC(C)CCn1cc(-c2cc(O)cc(N3CC(=O)NS3(=O)=O)c2F)cn1 [Compound 221, 5-(2-fluoro-5-hydroxy-3-(1-isopentyl-1H-pyrazol-4-yl)phenyl)-1,2,5-thiadiazolidin-3-one 1,1-dioxide] | > 1000 | > 1000
14 | COCC#Cc1cc(-c2ccc(O)c(N3CC(=O)NS3(=O)=O)c2F)[nH]n1 [Compound 274, 5-(2-fluoro-6-hydroxy-3-(3-(3-methoxyprop-1-yn-1-yl)-1H-pyrazol-5-yl)phenyl)-1,2,5-thiadiazolidin-3-one 1,1-dioxide] | ≤ 1000 | ≤ 1000
15 | Cc1noc(C)c1Cn1ccc(-c2ccc(O)c(N3CC(=O)NS3(=O)=O)c2F)c1 [Compound 390, 5-(3-(1-((3,5-dimethylisoxazol-4-yl)methyl)-1H-pyrrol-3-yl)-2-fluoro-6-hydroxyphenyl)-1,2,5-thiadiazolidin-3-one 1,1-dioxide] | ≤ 1000 | ≤ 1000
16 | O=C1CN(c2c(O)ccc(-c3cnn(C4CC5CCC(C4)O5)c3)c2F)S(=O)(=O)N1 (stereo not shown) [Compound 465, 5-(3-(1-(8-oxabicyclo[3.2.1]octan-3-yl)-1H-pyrazol-4-yl)-2-fluoro-6-hydroxyphenyl)-1,2,5-thiadiazolidin-3-one 1,1-dioxide] | ≤ 1000 | ≤ 1000
17 | O=C1CN(c2c(O)ccc(-c3cn(CC4CCCCC4)cn3)c2F)S(=O)(=O)N1 [Compound 453, 5-(3-(1-(cyclohexylmethyl)-1H-imidazol-4-yl)-2-fluoro-6-hydroxyphenyl)-1,2,5-thiadiazolidin-3-one 1,1-dioxide] | ≤ 1000 | ≤ 1000
18 | CC(C)S(=O)(=O)Nc1ccc(-c2ccc(O)c(N3CC(=O)NS3(=O)=O)c2F)cc1 [Compound 374, N-(3′-(1,1-dioxido-4-oxo-1,2,5-thiadiazolidin-2-yl)-2′-fluoro-4′-hydroxy-[1,1′-biphenyl]-4-yl)propane-2-sulfonamide] | ≤ 1000 | ≤ 1000

Now from value to compound:

Row | IC50 (PTPN2 (i.e., TC-PTP)) [nM] | IC50 (PTPN1 (i.e., PTP1B)) [nM] | Compound
19 | ≤ 1000 | ≤ 1000 | COc1cccc(-n2cnc(-c3ccc(O)c(N4CC(=O)NS4(=O)=O)c3F)c2)c1 [Compound 445, 5-(2-fluoro-6-hydroxy-3-(1-(3-methoxyphenyl)-1H-imidazol-4-yl)phenyl)-1,2,5-thiadiazolidin-3-one 1,1-dioxide]
20 | ≤ 1000 | ≤ 1000 | Cn1cnc(-c2ccc(O)c(N3CC(=O)NS3(=O)=O)c2F)c1 [Compound 115]
21 | ≤ 1000 | ≤ 1000 | Cc1nsc(-c2ccc(O)c(N3CC(=O)NS3(=O)=O)c2F)n1 [Compound 425, 5-(2-fluoro-6-hydroxy-3-(3-methyl-1,2,4-thiadiazol-5-yl)phenyl)-1,2,5-thiadiazolidin-3-one 1,1-dioxide]
22 | ≤ 1000 | ≤ 1000 | CC(=O)N(C)C1CC=C(c2ccc(O)c(N3CC(=O)NS3(=O)=O)c2F)CC1 (stereo not shown) [Compound 377, N-(3′-(1,1-dioxido-4-oxo-1,2,5-thiadiazolidin-2-yl)-2′-fluoro-4′-hydroxy-2,3,4,5-tetrahydro-[1,1′-biphenyl]-4-yl)-N-methylacetamide]
23 | ≤ 1000 | ≤ 1000 | Cn1nc(-c2ccc(O)c(N3CC(=O)NS3(=O)=O)c2F)cc1CCC#N [Compound 432, 3-(3-(3-(1,1-dioxido-4-oxo-1,2,5-thiadiazolidin-2-yl)-2-fluoro-4-hydroxyphenyl)-1-methyl-1H-pyrazol-5-yl)propanenitrile]
24 | ≤ 1000 | ≤ 1000 | Cc1ncc(-c2ccc(O)c(N3CC(=O)NS3(=O)=O)c2F)[nH]1 [Compound 263, 5-(2-fluoro-6-hydroxy-3-(2-methyl-1H-imidazol-5-yl)phenyl)-1,2,5-thiadiazolidin-3-one 1,1-dioxide]
25 | ≤ 1000 | ≤ 1000 | O=C1CN(c2c(O)ccc(C3=CCC(NS(=O)(=O)C4CC4)CC3)c2F)S(=O)(=O)N1 (stereo not shown) [Compound 317, N-(3′-(1,1-dioxido-4-oxo-1,2,5-thiadiazolidin-2-yl)-2′-fluoro-4′-hydroxy-2,3,4,5-tetrahydro-[1,1′-biphenyl]-4-yl)cyclopropanesulfonamide]
26 | ≤ 1000 | ≤ 1000 | O=C1CN(c2c(O)ccc(-c3cc(C4CCOC4)n[nH]3)c2F)S(=O)(=O)N1 (stereo not shown) [Compound 326, 5-(2-fluoro-6-hydroxy-3-(3-(tetrahydrofuran-3-yl)-1H-pyrazol-5-yl)phenyl)-1,2,5-thiadiazolidin-3-one 1,1-dioxide]
